# Source: article PMC8788354 (Journal of Enzyme Inhibition and Medicinal Chemistry, 2022)
# Read-outs that look alike come from different tables or passages of the source. Numbered stars: 1 amine (or outer) side, 2 acyl side, 3 side chain; on linkers, the order of the positions; unused ones are H or OH. Bridge positions count the residues as written; N and C are the ends. Square brackets hold non-standard residues; d marks the D form. Peptide text beside a SMILES is read from it. I, II: the chains in the order shown. Actinocin(9to1) = Cc1c2oc3c(C)ccc(C(=O)[*:1])c3nc-2c(C(=O)[*:2])c(N)c1=O; NMeV = CN[C@H](C(=O)O)C(C)C; Sar = CNCC(=O)O
# What was measured:
# [1] = tested on: U-87MG cells (glioblastoma cell line); experiment: cells; assay type: cell-based, human; details: SRB assay, 72 h exposure, read-out: Anticancer activity IC50 (nM) ± SD, U-87
# [2] = tested on: SKBR-3 (human breast cancer cell line); experiment: cells; assay type: cell-based; details: for IC50: SRB assay, 72 h exposure, read-out: Anticancer activity IC50 (nM) ± SD, SKBR-3
# [3] = tested on: SKOV-3 (ovarian cancer cell line); experiment: cells; assay type: cell-based, human; details: for IC50: SRB assay, 72 h exposure, read-out: Anticancer activity IC50 (nM) ± SD, SKOV-3
# [4] = in vitro; details: human
# [5] = tested on: PC-3 (human prostate cancer cell line); experiment: cells; assay type: cell-based; details: for IC50: SRB assay, 72 h exposure, read-out: Anticancer activity IC50 (nM) ± SD, PC-3
# [6] = Toxicity IC50 (nM) ± SD, HDF, healthy cell line HDF, SRB assay, 72 h exposure
SMILES,"IC50 ([1]; Homo sapiens, U-87 MG) [nM]","IC50 ([3]; Homo sapiens, SK-OV-3) [nM]",IC50 ([5]; Homo sapiens) [nM],"IC50 ([2]; Homo sapiens, SK-BR-3, 72 h) [nM]","IC50 [4, 6] [nM]",also measured
"Cc1c2oc3c(C)ccc(C(=O)N[C@@H]4C(=O)N[C@H](C(C)C)C(=O)N5CCC[C@H]5C(=O)N(C)CC(=O)N(C)[C@@H](C(C)C)C(=O)O[C@@H]4C)c3nc-2c(C(=O)N[C@@H]2C(=O)N[C@H](C(C)C)C(=O)N3CCC[C@H]3C(=O)N(C)CC(=O)N(C)[C@@H](C(C)C)C(=O)O[C@@H]2C)c(N)c1=O [ActD, actinomycin D, reference compound] (I: T[dV]P[Sar][NMeV] / II: T[dV]P[Sar][NMeV]; ester I:1-I:C, II:1-II:C; linker I:N-II:N via Actinocin(9to1))",1610 ± 90,–,–,–,–,"IC50 ([2]; Homo sapiens, SK-BR-3): 1140 ± 60 nM"
"Nc1ccn([C@@H]2O[C@H](CO)[C@@H](O)[C@@H]2O)c(=O)n1 [C, cytarabine, reference compound]",850 ± 31,990 ± 110,810 ± 10,870 ± 10,–,"IC50 at 72 h ([4]; Human Dermal Fibroblasts (HDF) cells, Toxicity IC50 (nM) ± SD, HDF, healthy cell line HDF, SRB assay, 72 h exposure): 5940 ± 70 nM"
"COc1cc2c(c(OC)c1OC)-c1ccc(OC)c(=O)cc1[C@@H](NC(C)=O)CC2 [Compound 1, colchicine, reference compound]",–,–,–,–,–,IC50 [4]: 2.37 ± 0.15 nM
"COc1cc2c(c(OC)c1OC)-c1ccc(=O)c(O)cc1[C@@H](NC(C)=O)CC2 [Compound 2, colchiceine, reference compound]",–,–,–,–,–,IC50 [3]: 1.88 ± 0.02 nM; IC50 [5]: 1.37 ± 0.02 nM; IC50 [1]: 1.26 ± 0.04 nM; IC50 [2]: 1.04 ± 0.07 nM
COc1cc2c(c(OC)c1OC)-c1ccc(=O)c(OCc3ccccc3)cc1[C@@H](NC(C)=O)CC2 [Compound 3a],2.83 ± 0.06,2.19 ± 0.07,2.27 ± 0.04,2.04 ± 0.51,6.39 ± 1.04,"Selectivity index (SI), SKBR-3 ([2]; SI = IC50 HDF/IC50 SKBR-3): ~3"
COc1cc2c(c(OC)c1OC)-c1ccc(=O)c(OCc3ccc(I)cc3)cc1[C@@H](NC(C)=O)CC2 [Compound 3b],2.47 ± 0.91,2.13 ± 0.4,2.94 ± 0.08,2.55 ± 0.12,3.94 ± 0.27,–
COc1cc2c(c(OC)c1OC)-c1ccc(=O)c(OC/C=C/c3ccccc3)cc1[C@@H](NC(C)=O)CC2 [Compound 3c],3.38 ± 0.05,3.74 ± 0.18,3.11 ± 0.91,3.09 ± 0.02,5.24 ± 0.26,–
C=CCOc1cc2c(ccc1=O)-c1c(cc(OC)c(OC)c1OC)CC[C@@H]2NC(C)=O [Compound 3d],1.63 ± 0.04,1.68 ± 0.09,1.05 ± 0.01,1.09 ± 0.01,2.83 ± 0.05,–
C#CCOc1cc2c(ccc1=O)-c1c(cc(OC)c(OC)c1OC)CC[C@@H]2NC(C)=O [Compound 3f],1.14 ± 0.01,1.05 ± 0.07,1.05 ± 0.03,1.37 ± 0.02,2.83 ± 0.44,"Selectivity index (SI), SKOV-3 ([3]; SI = IC50 HDF/IC50 SKOV-3): ~2.7; Selectivity index (SI), PC-3 ([5]; SI = IC50 HDF/IC50 PC-3): ~2.7"
CCOC(=O)COc1cc2c(ccc1=O)-c1c(cc(OC)c(OC)c1OC)CC[C@@H]2NC(C)=O [Compound 3g],1.41 ± 0.03,1.37 ± 0.01,1.62 ± 0.29,1.31 ± 0.08,2.72 ± 0.03,–
C=CCCOc1cc2c(ccc1=O)-c1c(cc(OC)c(OC)c1OC)CC[C@@H]2NC(C)=O [Compound 3h],1.06 ± 0.03,1.99 ± 0.07,1.53 ± 0.21,1.04 ± 0.33,1.84 ± 0.11,–
COc1cc2c(c(OC)c1OC)-c1ccc(=O)c(OCCCN=[N+]=[N-])cc1[C@@H](NC(C)=O)CC2 [Compound 3i],1.88 ± 0.05,1.05 ± 0.02,1.43 ± 0.02,1.32 ± 0.05,2.85 ± 0.13,–
C=Cc1ccc(COc2cc3c(ccc2=O)-c2c(cc(OC)c(OC)c2OC)CC[C@@H]3NC(C)=O)cc1 [Compound 3j],4.55 ± 0.06,4.55 ± 0.07,4.59 ± 0.03,4.19 ± 0.62,5.38 ± 0.42,–
COc1cc2c(c(OC)c1OC)-c1ccc(OCc3ccccc3)c(=O)cc1[C@@H](NC(C)=O)CC2 [Compound 4a],2.08 ± 0.01,1.63 ± 0.03,2.26 ± 0.01,2.01 ± 0.02,4.12 ± 0.06,–
COc1cc2c(c(OC)c1OC)-c1ccc(OCc3ccc(I)cc3)c(=O)cc1[C@@H](NC(C)=O)CC2 [Compound 4b],2.85 ± 0.03,2.83 ± 0.26,2.41 ± 0.66,2.77 ± 0.19,4.12 ± 0.01,–
COc1cc2c(c(OC)c1OC)-c1ccc(OC/C=C/c3ccccc3)c(=O)cc1[C@@H](NC(C)=O)CC2 [Compound 4c],3.82 ± 0.22,3.05 ± 0.03,3.19 ± 0.01,3.46 ± 0.07,4.94 ± 0.15,–
C=CCOc1ccc2c(cc1=O)[C@@H](NC(C)=O)CCc1cc(OC)c(OC)c(OC)c1-2 [Compound 4d],1.78 ± 0.03,1.73 ± 0.07,1.71 ± 0.03,1.73 ± 0.11,2.39 ± 0.17,–

SMILES,"IC50 ([1]; Homo sapiens, U-87 MG) [nM]","IC50 ([3]; Homo sapiens, SK-OV-3) [nM]",IC50 ([5]; Homo sapiens) [nM],"IC50 ([2]; Homo sapiens, SK-BR-3, 72 h) [nM]","IC50 [4, 6] [nM]",also measured
C/C=C/COc1ccc2c(cc1=O)[C@@H](NC(C)=O)CCc1cc(OC)c(OC)c(OC)c1-2 [Compound 4e],1.93 ± 0.02,1.92 ± 0.11,1.98 ± 0.05,1.97 ± 0.04,2.66 ± 0.03,–
C#CCOc1ccc2c(cc1=O)[C@@H](NC(C)=O)CCc1cc(OC)c(OC)c(OC)c1-2 [Compound 4f],1.06 ± 0.04,1.52 ± 0.02,1.46 ± 0.13,1.48 ± 0.09,1.85 ± 0.03,–
CCOC(=O)COc1ccc2c(cc1=O)[C@@H](NC(C)=O)CCc1cc(OC)c(OC)c(OC)c1-2 [Compound 4g],1.27 ± 0.01,1.06 ± 0.22,1.15 ± 0.03,1.28 ± 0.17,2.05 ± 0.02,–
COc1cc2c(c(OC)c1OC)-c1ccc(OCCCN=[N+]=[N-])c(=O)cc1[C@@H](NC(C)=O)CC2 [Compound 4i],1.19 ± 0.03,1.37 ± 0.09,1.49 ± 0.16,1.38 ± 0.03,2.58 ± 0.12,–
C=Cc1ccc(COc2ccc3c(cc2=O)[C@@H](NC(C)=O)CCc2cc(OC)c(OC)c(OC)c2-3)cc1 [Compound 4j],3.11 ± 0.03,3.01 ± 0.04,3.05 ± 0.01,3.22 ± 0.36,5.17 ± 0.28,–
COc1cc2c(c(OC)c1OC)-c1ccc(=O)c(OCc3cn(Cc4ccccc4)nn3)cc1[C@@H](NC(C)=O)CC2 [Compound 5a],3.74 ± 0.19,3.28 ± 0.06,3.21 ± 0.15,3.07 ± 0.11,5.28 ± 0.22,–
COc1cc2c(c(OC)c1OC)-c1ccc(=O)c(OCc3cn(Cc4ccc(C#N)cc4)nn3)cc1[C@@H](NC(C)=O)CC2 [Compound 5b],2.57 ± 0.13,2.88 ± 0.47,2.13 ± 0.02,2.07 ± 0.08,4.92 ± 0.51,–
COc1cc2c(c(OC)c1OC)-c1ccc(=O)c(OCc3cn(Cc4ccc([N+](=O)[O-])cc4)nn3)cc1[C@@H](NC(C)=O)CC2 [Compound 5c],2.04 ± 0.08,2.94 ± 0.71,2.09 ± 0.33,2.18 ± 0.02,3.12 ± 0.41,–
COc1cc2c(c(OC)c1OC)-c1ccc(=O)c(OCc3cn([C@@H]4O[C@H](COC(C)=O)[C@@H](OC(C)=O)[C@H](OC(C)=O)[C@H]4NC(C)=O)nn3)cc1[C@@H](NC(C)=O)CC2 [Compound 5d],6.11 ± 0.26,6.03 ± 0.19,6.39 ± 0.08,6.29 ± 0.25,7.99 ± 0.04,–
COc1cc2c(c(OC)c1OC)-c1ccc(=O)c(OCc3cn(C4CC(n5cc(C)c(=O)[nH]c5=O)OC4CO)nn3)cc1C(NC(C)=O)CC2 (stereo not shown) [Compound 5e],3.05 ± 0.01,3.74 ± 0.03,3.51 ± 0.09,3.71 ± 0.05,6.22 ± 0.32,–
COc1cc2c(c(OC)c1OC)-c1ccc(=O)c(OCc3cn(CCCNC4=C5C[C@@H](C)C[C@H](OC)[C@H](O)[C@@H](C)/C=C(\C)[C@H](OC(N)=O)[C@@H](OC)/C=C\C=C(/C)C(=O)NC(=CC4=O)C5=O)nn3)cc1[C@@H](NC(C)=O)CC2 [Compound 5f],8.25 ± 0.11,8.05 ± 0.58,8.38 ± 0.09,8.91 ± 0.17,10.4 ± 0.39,–
COc1cc2c(c(OC)c1OC)-c1ccc(OCc3cn(Cc4ccccc4)nn3)c(=O)cc1[C@@H](NC(C)=O)CC2 [Compound 6a],2.78 ± 0.05,2.79 ± 0.07,2.04 ± 0.44,2.33 ± 0.09,3.88 ± 0.14,–
COc1cc2c(c(OC)c1OC)-c1ccc(OCc3cn(Cc4ccc(C#N)cc4)nn3)c(=O)cc1[C@@H](NC(C)=O)CC2 [Compound 6b],3.74 ± 0.06,3.97 ± 0.12,3.15 ± 0.04,3.06 ± 0.03,5.83 ± 0.31,–
COc1cc2c(c(OC)c1OC)-c1ccc(OCc3cn(Cc4ccc([N+](=O)[O-])cc4)nn3)c(=O)cc1[C@@H](NC(C)=O)CC2 [Compound 6c],2.81 ± 0.18,2.42 ± 0.11,2.05 ± 0.03,2.88 ± 0.06,4.08 ± 0.26,–
COc1cc2c(c(OC)c1OC)-c1ccc(OCc3cn([C@@H]4O[C@H](COC(C)=O)[C@@H](OC(C)=O)[C@H](OC(C)=O)[C@H]4NC(C)=O)nn3)c(=O)cc1[C@@H](NC(C)=O)CC2 [Compound 6d],5.83 ± 0.15,5.93 ± 0.12,5.04 ± 0.02,5.21 ± 0.39,7.29 ± 0.41,–
"CO[C@@]12[C@H](COC(N)=O)C3=C(C(=O)C(C)=C(N)C3=O)N1C[C@@H]1N[C@@H]12 [MitC, mitomycin C, reference compound]",650 ± 40,–,–,–,–,"IC50 ([2]; Homo sapiens, SK-BR-3): 670 ± 10 nM"
